According to the NIST ThermoML archive (doi:10.1016/j.fluid.2018.05.004):

Conditions: Crystal, Transpiration method

[CH]1C=CC=C1.[CH]1C=CC=C1.[Fe] [ferrocene]
Conditions | vapor or sublimation pressure [kPa]
361.2 K | 0.172
363.2 K | 0.198
366.5 K | 0.244
368.2 K | 0.263
371.7 K | 0.332
374.4 K | 0.398
378.3 K | 0.494
385.7 K | 0.789
388.6 K | 0.907
392.1 K | 1.13
394 K | 1.23
401.8 K | 1.881
410.1 K | 2.869
417.3 K | 4.29
419.4 K | 4.338
429.4 K | 7.204
430.7 K | 7.571
434.6 K | 9.559
435.2 K | 9.195
